Assay results from patent US20090048221A1, “Conjugates with Anti-Inflammatory Activity” (priority 2004, published 2009).
Where a name gives a salt, the structure may show the parent alone.

What was measured:
Male Sprague-Dawley rats = assay: Croton oil induced ear edema in male Sprague-Dawley rats; type: in vivo; settings: applied topically once, n=8
Experimental: Test and reference substances, as well as vehicle (acetone), were administered topically to the inner and the outer surface of the right ear of each animal with an automatic pipette, in a volume of 60 μL/ear (30 μL/surface), thirty minutes before the croton oil challenge. Test substances were administered in the doses of 2 or 5 mg/ear/60 μL of acetone. Dexamethasone was administered in the dose of 1 mg/ear/60 μL of acetone. Thirty minutes later, 20% croton oil emulsion in acetone was applied topically to the inner and the outer surface of the right ear of each animal with an automatic pipette, in a volume of 60 μL/ear (30 μL/surface). Five hours after the challenge, animals were euthanized by asphyxiation in 100% CO2 atmosphere. For assessing the auricular edema, 8 mm discs were cut out of left and right auricular pinna and weighed. The degree of edema was calculated by subtracting the weight of 8 mm disc of the untreated ear from that of the treated contralateral ear.

[1] = tested on: Mouse T-cell hybridoma 13; assay: Inhibition of mouse T-cell hybridoma 13 proliferation as a result of apoptosis induction; type: cell-based; settings: for IC50: Mus musculus, T-cell, [3H]thymidine incorporation, overnight incubation; for inhibition of T-cell hybridoma 13 proliferation: in the concentrations from 1 μM to 1 nM
Experimental: Triplicates of test steroid dilution in RPMI medium (Institute of Immunology, Zagreb) with 10% FBS were added to a 96 well plate. […] Then 1 μCi of [^3H]thymidine (Pharmacia, Piscataway, N.J. USA) was added and the mixture was incubated for an additional 3 hours. The cells were harvested by applying a vacuum over GF/C filter (Packard). Onto each well, 30 μl of Microscynt O scintillation liquid (Packard) was added and the incorporated radioactivity was measured on a β-scintillation counter (Packard).

[2] = target: T1, human glucocorticoid receptor (Homo sapiens, UniProt P04150); assay: Assay of binding to human glucocorticoid receptor ([3H]dexamethasone displacement in transfected COS-1 cells); settings: 24 nM [3H]dexamethasone, COS-1 cells transfected with human GR alpha
T1 construct: expressed in transfected cells; host or cells: COS-1 cells, transient transfection with pcDNA3.1 Hygro(+) carrying the cloned cDNA
T1 sequence (P04150 1-777): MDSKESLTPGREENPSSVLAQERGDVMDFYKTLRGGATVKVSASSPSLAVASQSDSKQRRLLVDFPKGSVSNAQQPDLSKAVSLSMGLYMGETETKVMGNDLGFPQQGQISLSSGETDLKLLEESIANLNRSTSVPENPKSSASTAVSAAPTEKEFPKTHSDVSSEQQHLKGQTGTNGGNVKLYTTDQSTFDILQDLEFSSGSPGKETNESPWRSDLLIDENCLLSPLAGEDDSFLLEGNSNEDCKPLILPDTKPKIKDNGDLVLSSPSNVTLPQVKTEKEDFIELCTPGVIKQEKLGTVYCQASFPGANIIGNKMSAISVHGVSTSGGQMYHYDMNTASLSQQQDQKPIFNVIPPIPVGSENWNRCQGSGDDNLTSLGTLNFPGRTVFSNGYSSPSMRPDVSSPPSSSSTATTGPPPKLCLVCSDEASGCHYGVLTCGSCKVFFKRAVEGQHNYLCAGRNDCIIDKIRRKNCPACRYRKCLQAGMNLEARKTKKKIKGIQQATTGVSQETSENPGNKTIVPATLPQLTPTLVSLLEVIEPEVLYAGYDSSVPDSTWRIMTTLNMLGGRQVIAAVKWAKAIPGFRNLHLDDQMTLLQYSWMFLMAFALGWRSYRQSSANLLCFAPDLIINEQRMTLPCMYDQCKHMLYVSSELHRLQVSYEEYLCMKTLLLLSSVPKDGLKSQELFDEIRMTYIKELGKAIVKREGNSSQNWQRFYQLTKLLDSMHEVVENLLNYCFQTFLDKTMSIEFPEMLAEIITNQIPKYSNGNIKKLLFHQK
Experimental: The cells were incubated at 37° C. in an atmosphere with 5% CO2 and after 5 hours the same volume of 20% FBS/DMEM was added.

Sprague-Dawley rats = assay: Subcutaneous sponge implantation model; settings: seven days after implantation; for thymus weight: vs vehicle
Experimental: In this model, local inflammation was followed by determination of newly formed granulation tissue together with determination of compound effects on plasma corticosterone concentration and thymus weight in Sprague-Dawley rats. Sprague-Dawley rats were purchased from Iffa Credo, Lyon, France and 10 weeks old male rats were used. […] All substances were dissolved in ethanol, applied onto sterile sponges and allowed to dry in the laminar flow cabinet prior to the sponge implantation.
On day 0, animals were anaesthetized by inhalation of Isoflurane (Abbott Laboratories Ltd., USA) and 5% oxygen, delivered in an anesthesia induction chamber (Stoelting Co., USA). Gas scavenging was provided using the Fluovac 240V system (International Market Supply, England). Anesthesia was maintained using a gas anesthesia mask (Stoelting Co., USA) and pedal reflex response where checked at intervals. The implantation area was shaved and subsequently disinfected using Pursept solution (MERZ Hygiene, Germany). Using strict aseptic procedure, two 1 cm long skin incisions were made just below the left and right regio scapularis. Small subcutaneous pockets were made on the left side of the left wound and the right side of the right wound using blunt forceps. In all animals, sponges with vehicle or dissolved substance applied were inserted on the left side and non-treated ones on the right side. Skin was closed with sutures and disinfected with Pursept solution. On day 7 rats were anaesthetized by intraperitoneal administration of Thiopental (PLIVA; 0.5 mL/100g body weight) and exanguinated by puncturing A. carolis com.
Blood was collected into Vacutainer tubes (Becton Dickinson, USA) for plasma corticosterone concentration analysis. Corticosterone levels in plasma were measured using R&D Systems kit for quantitative determination of corticosterone. Competitive ELISA was performed with alkaline phosphatase conjugated corticosterone as competitor. Samples were incubated for 2 hours, and after successive washing, substrate was added. After 1 h absorbance was measured on 405 mm. OD values are inversely correlated with increasing corticosterone concentrations. Corticosterone concentrations were calculated using calibration curve generated with corticosterone standard concentration dilutions. For assessing the thymus weight, thymuses were extirpated and weighed using the analytical balance. The reduction of thymus size in treated animals was presented as a percentage of that in control rats (0%).
For assessing the newly formed granulation tissue, sponges were carefully excised and each sponge perforated with sterile surgical sewing suture to keep it on the top of the Falcon tube during centrifugation. Tubes were centrifuged (1000 rpm per 10 minutes). […]

Male Balb/C mice = assay: Model of lung eosinophilia in mice (OVA sensitised and challenged)
Experimental: Male Balb/C mice with a body weight of 20-25 g were randomly divided into groups, and sensitised by an i.p. injection of ovalbumin (OVA, Sigma, St. Louis, Mo. USA) on day zero and day fourteen. On the twentieth day, the mice were subjected to a challenge test by i.n. (intranasal) application of OVA (positive control or test groups) or PBS (negative control). 48 hours after i.n. application of OVA, the animals were anaesthetized and the lungs were rinsed with 1 mL of PBS. The cells were separated on Cytospin 3 cytocentrifuge (Shandon). The cells were stained in Diff-Quick (Dade) and the percentage of eosinophils was determined by differential counting of at least 100 cells.
Beclomethasone (Pliva d.d.) were used as a standard substances, with positive and negative control. The compounds were administered daily i.n. or i.p. in different doses 2 days before the challenge test and up to the completion of the test.
Corticosterone levels were determined in plasma from each animal using a kit for determination of corticosterone (R&D systems).

Male Balb/cJ mice = assay: Lung neutrophilia induced by bacterial lipopolysaccharide; type: in vivo; settings: 24 hours after LPS
Experimental: Male Balb/cJ mice (Iffa Credo, Lyon, France) weighing 25 g were randomly grouped in three groups: test, positive and negative control (10 animals per each group). Vehicle, beclomethasone dipropionate or test substance were applied intranasally (i.n.) to Balb/cJ mice. Thirty minutes later, 60 μl of bacterial lipopolysaccharide (LPS), dissolved in PBS at the concentration of 167 μg/ml, was given i.n. to all groups except the negative control group, which received the same volume of PBS. Animals were sacrificed after 24 hours and bronchoalveolar lavage fluid (BALF) collected for determination of neutrophils and […] and TNF-α concentration. Cytokines were measured using sandwich ELISA (R&D Systems). Statistical analysis was performed using GraphPad prism software, one-way ANOVA Turkey Kramer Multiple comparison test.

[3] = tested on: interleukin 4, interleukin 5 and interferon γ production; assay: Inhibition of interleukin 4, interleukin 5 and interferon γ production by concanavalin-A induced murine splenocytes; type: cell-based, Balb/C mice; settings: in concentrations from 1 μM to 1 nM; concanavalin-A stimulated splenocytes, 72 hours
Excerpt: Splenocytes were isolated from the spleen of Balb/C mice sacrificed by thiopental injection (Pliva, Zagreb, Croatia). Spleens were chopped and mononuclear cells separated on Histopaque 1083 (Sigma Diagnostics, St. Louis, Mo. USA Cat. No 1083-1). Into a 96-well plate, compounds diluted in RPMI medium (Institute of Immunology, Zagreb, Croatia) were pipetted with 10% foetal bovine serum (Biowhittaker) and cells (200000 per well) in the same medium, and concanavalin-A stimulator (Sigma 2002-2003 cat. No C5275) at a final concentration of […] were added. The positive control, in place of the dilution of compounds, consisted of RPMI medium with 10% foetal bovine serum and concanavalin-A in the same concentration of. Cells were incubated for 72 hours at 37° C., 95% humidity and in an atmosphere with 5% CO2. Until determination of cytokines, the cells were frozen at −70° C.
Cytokines interleukin 4, interleukin 5 and interferon γ were determined by the specific ELISA method, according to manufacturer's recommendations (R&D).
Inhibition (as percentage) was calculated using the following formula:
% inh=(1−[concentration of cytokines in sample]/[concentration of cytokines in positive control])*100

[4] = 4 mg/kg i.n., vs positive control

## C[C@@H]1C[C@H]2[C@@H]3CCC4=CC(=O)C=C[C@]4(C)[C@@]3(F)[C@@H](O)C[C@]2(C)[C@@]1(O)C(=O)CO [Dexamethasone, reference compound]
Male Sprague-Dawley rats; 1 mg/ear
  reduction of ear edema: 85.77%

## CC[C@H]1OC(=O)[C@H](C)[C@@H](O)[C@H](C)[C@@H](O)[C@](C)(O)C[C@@H](C)CN(CCCNC(=O)CCCCCCCCCCCNCCC(=O)O[C@]2(C(=O)OC)[C@H](C)CC3C4C[C@H](F)C5=CC(=O)C=C[C@]5(C)[C@@]4(F)[C@@H](O)C[C@@]32C)[C@H](C)[C@@H](O)[C@]1(C)O (stereo partly drawn) [Compound 14]
[1]
  IC50: 455 nM

## CC[C@H]1OC(=O)[C@H](C)[C@@H](O)[C@H](C)[C@@H](O)[C@](C)(O)C[C@@H](C)CN(CCCNCCC(=O)O[C@]2(C(=O)OC)CCC3C4C[C@H](C)C5=CC(=O)C=C[C@]5(C)C4[C@@H](O)C[C@@]32C)[C@H](C)[C@@H](O)[C@]1(C)O (stereo partly drawn) [Compound 13]
[1]
  IC50: 287 nM

## CC[C@H]1OC(=O)[C@H](C)[C@@H](O)[C@H](C)[C@@H](O)[C@](C)(O)C[C@@H](C)CN(CCCCCCNCCC(=O)O[C@]2(C(=O)OC)[C@H](C)CC3C4C[C@H](F)C5=CC(=O)C=C[C@]5(C)[C@@]4(F)[C@@H](O)C[C@@]32C)[C@H](C)[C@@H](O)[C@]1(C)O (stereo partly drawn) [Compound 18]
[1]
  IC50: 474 nM

## CCOC(=O)[C@@]1(OC(=O)CCNCCCN2C[C@H](C)C[C@@](C)(O)[C@H](O)[C@@H](C)[C@H](O)[C@@H](C)C(=O)O[C@H](CC)[C@@](C)(O)[C@H](O)[C@H]2C)[C@H](C)CC2C3C[C@H](F)C4=CC(=O)C=C[C@]4(C)[C@@]3(F)[C@@H](O)C[C@@]21C (stereo partly drawn) [Compound 16]
[1]
  IC50: 112 nM

## CC[C@H]1OC(=O)[C@H](C)[C@@H](O)[C@H](C)[C@@H](O)[C@](C)(O)C[C@@H](C)CN(CCCNCCC(=O)O[C@]2(C(=O)OC)[C@H](C)CC3C4CCC5=CC(=O)C=C[C@]5(C)[C@@]4(F)[C@@H](O)C[C@@]32C)[C@H](C)[C@@H](O)[C@]1(C)O (stereo partly drawn) [Compound 7]
[2]
  affinity for the glucocorticoid receptor (displacement of radioactive dexamethasone): have affinity for the glucocorticoid receptor
[1]
  IC50: 464 nM
  inhibition of T-cell hybridoma 13 proliferation: exhibit inhibition

## C[C@H]1C[C@H]2[C@@H]3CCC4=CC(=O)C=C[C@]4(C)[C@@]3(Cl)[C@@H](O)C[C@]2(C)[C@@]1(O)C(=O)CO [beclomethasone]
Sprague-Dawley rats; 2 mg/sponge
  thymus weight: significantly decreased
Sprague-Dawley rats; 10 mg/sponge
  thymus weight: significantly decreased
Sprague-Dawley rats; 10 mg/sponge, vs vehicle control
  plasma corticosterone concentration: significantly decreased
Male Balb/C mice; 1 mg/kg intranasally, mice
  plasma corticosterone levels: significantly suppressed

## CC[C@H]1OC(=O)[C@H](C)[C@@H](O)[C@H](C)[C@@H](O)[C@](C)(O)C[C@@H](C)CN(CCCNCCC(=O)O[C@]2(C(=O)OC)[C@H](C)CC3C4C[C@H](F)C5=CC(=O)C=C[C@]5(C)[C@@]4(F)[C@@H](O)C[C@@]32C)[C@H](C)[C@@H](O)[C@]1(C)O (stereo partly drawn) [Compound 10 phosphate salt]
Male Balb/cJ mice; [4]
  concentration of IL-6 in BALF: statistically significantly decreased
  concentration of TNF-α in BALF: statistically significantly decreased
  neutrophils in BALF: statistically significantly decreased

## CC[C@H]1OC(=O)[C@H](C)[C@@H](O)[C@H](C)[C@@H](O)[C@](C)(O)C[C@@H](C)CN(CCCNCCC(=O)O[C@]2(C(=O)OC)[C@H](C)CC3C4C[C@H](F)C5=CC(=O)C=C[C@]5(C)[C@@]4(F)[C@@H](O)C[C@@]32C)[C@H](C)[C@@H](O)[C@]1(C)O (stereo partly drawn) [Compound 10]
[2]
  affinity for the glucocorticoid receptor (displacement of radioactive dexamethasone): have affinity for the glucocorticoid receptor
[1]
  IC50: 41.7 nM
  inhibition of T-cell hybridoma 13 proliferation: exhibit inhibition
[3]
  inhibition of the production of cytokines: inhibits the production of cytokines
Male Sprague-Dawley rats; 2 mg/ear
  reduction of ear edema: 51.58%
Male Sprague-Dawley rats; 5 mg/ear
  reduction of ear edema: 85.53%
Sprague-Dawley rats; 10 mg/sponge, vs non-treated and vehicle sponges
  granulation tissue formation: significantly reduced
Male Balb/C mice; t-test, p<0.05
  number of eosinophils in the lung rinse with respect to positive control: statistically significantly reduced

## CC[C@H]1OC(=O)[C@H](C)[C@@H](O)[C@H](C)[C@@H](O)[C@](C)(O)C[C@@H](C)CN(CCCCNCCC(=O)O[C@]2(C(=O)OC)[C@H](C)CC3C4C[C@H](F)C5=CC(=O)C=C[C@]5(C)[C@@]4(F)[C@@H](O)C[C@@]32C)[C@H](C)[C@@H](O)[C@]1(C)O (stereo partly drawn) [Compound 17]
[1]
  IC50: 41.6 nM
Male Sprague-Dawley rats; 5 mg/ear
  reduction of ear edema: 76.59%

## CC[C@H]1OC(=O)[C@H](C)[C@@H](O)[C@H](C)[C@@H](O)[C@](C)(O)C[C@@H](C)CN(CCCNCCC(=O)O[C@]2(C(=O)OC)[C@H](C)CC3C4C[C@H](F)C5=CC(=O)C=C[C@]5(C)C4[C@@H](O)C[C@@]32C)[C@H](C)[C@@H](O)[C@]1(C)O (stereo partly drawn) [Compound 9]
[1]
  IC50: 303 nM
  inhibition of T-cell hybridoma 13 proliferation: exhibit inhibition

## CCC(=O)OCC(=O)[C@@]1(OC(=O)CC)[C@@H](C)C[C@H]2[C@@H]3CCC4=CC(=O)C=C[C@]4(C)[C@@]3(Cl)[C@@H](O)C[C@@]21C [Beclometbasone dipropionate, beclomethasone dipropionate, reference compound]
Male Balb/cJ mice; 2 mg/kg i.n.
  concentration of IL-6 in BALF: non-significantly decreased
  concentration of TNF-α in BALF: non-significantly decreased
  neutrophils in BALF: non-significantly decreased
